Patent US8410130B2, “Synthesis of 8H-3A-aza-cyclopenta [A ]indenes and 5,10-dihydropyrrolo[1,2-B]isoquinolines derivatives and their use as antitumor therapeutic agents” (Academia Sinica, priority 2007, dated 2013)
Like-named read-outs stand apart in the source and are kept apart here.

Assays:
[1] = test system: human mammary carcinoma MX-1 xenograft; assay: Therapeutic effect in nude mice bearing MX-1 xenograft; format: in vivo; conditions: intravenous injection
Protocol: FIGS. 2A-B illustrates the therapeutic effect of DA-1090, 1099, 1124, 1012 and 1107 in nude mice bearing human mammary carcinoma MX-1 xenograft (i.v. inj, n=3-4), average tumor size changes (FIG. 2A) and average body weight changes (FIG. 2B).
Athymic nude mice bearing the nu/nu gene were obtained from NCI, Frederick, Md. and used for all human tumor xenografts. Male nude mice, 6 weeks or older, weighing 20-24 g or more were used. Compounds were administered via the tail vein for i.v. injection or infusion as described previously (Chou T-C et al., Proc. Natl. Acad. Sci. USA 2001, 98, 8113-8118). Various formulations were prepared for injections into the mice for chemotherapeutic studies. As an example, a drug was dissolved in DSMO to make a 25 mg/ml fresh solution, 0.4 ml of this solution was mixed with 0.3 ml of Tween 80, plus 1.3 ml to make 2 ml of 5 mg/ml solution. Bolus injection volume was 0.1-0.2 ml per mouse.
Athymic nude mice bearing the nu/nu gene were used for human breast tumor MX-1 xenograft (FIGS. 2, 2A and 2B). Nude mice were obtained from National Cancer Institute, Frederick, Md. Male mice, 6 weeks old or older, weighing 22 g or more were used for experiments with subcutaneous tumor inoculation as described previously (Chou T-C, Pharmacol. Rev. 2006, 58, 621-681). Drug was administrated via the tail vein by iv injection. Tumor volumes were assessed by measuring length×width×height (or width) by using caliper. An example of vehicle used was 20 μL DMSO in 180 μL saline. All animal studies were conducted in accordance with the guidelines of the U.S. National Institutes of Health Guide for the Care and Use of Animals and the protocol approved by the Institutional Animal Care and Use Committee.

CCRF-CEM/Taxol = assay: In vitro cytotoxicity, XTT assay, taxol resistant subline; format: cell-based, human; conditions: for IC50: XTT assay, 72-hr incubation; for fold of cross-resistant, CCRF-CEM/Taxol vs IC50 of the parent cell line: numbers in brackets
From the text: (§1) Human colon carcinoma HCT-116 cells, human prostate adenocarcinoma PC-3 and adenocarcinoma SK-OV-3 cells were obtained from American Type Culture Collection (ATCC, Rockville, Md.). Human mammary carcinoma (MX-1) tumor cells were obtained from MSKCC cell bank. The CCRF-CEM human lymphoblastic leukemia cells and their vinblastine resistant subline (CCRF-CEM/VBL, 680-fold resistance in vitro) were obtained from Dr. William Beck of the University of Illinois, Chicago, and CCRF-CEM/Taxol (330-fold resistance in vitro). Resistant cells CCRF-CEM/taxol were produced by exposing the parent cells to increasing sublethal concentration (IC50-IC90) of paclitaxel for six months.
(§2) In preparation for in vitro cytotoxicity assays, cells were cultured at an initial density 2-5×10^4 cells per milliliter. They were maintained in a 5% CO2-humidified atmosphere at 37° C. in RPMI medium 1640 (GIBCO/BRL) containing penicillin (100 units/mL), streptomycin (100 μg/mL, GIBCO/BRL), and 5% heat-inactivated FBS. For cells grown in suspension (such as CCRF-CEM and its sublines), cytotoxicity was measured, by using XTT microculture method in 96-well microtiter plates (Scudiero D A et al., Cancer Res. 1988, 48, 4827-4833). For solid tumor cells growing in a monolayer (such as MX-1 and HCT-116), cytotoxicity of the drug was determined, in duplicate, in 96-well microtiter plates by using the sulforhodamine B method (Skehan P et al., J. Natl. Cancer Inst 1990, 82, 1107-1112). For both methods, the absorbance of each well was measured with a microplate reader (Power Wave XS, Bio-Tek, Winooski, Vt.) after 72-hr incubation as described previously (Chou T-C et al., Proc. Natl. Acad. Sci. USA 2001, 98, 8113-8118). Dose-effect relationship data from 6 to 7 concentrations of each drug, in duplicate, were analyzed by using a computer program (Chou T-C et al., ComboSyn, Inc., Paramus, N J. 2005) based on the median-effect principle and plot (Chou T-C et al., Adv. Enzyme Regul. 1984, 22, 27-55; Chou T-C, Pharmacol. Rev. 2006, 58, 621-681).
(§3) The IC50 is defined by the concentration required to inhibit tumor cell growth by 50%. […] The growth inhibition of the compounds disclosed herein against human lymphoblastic leukemic cells (CCRF-CEM) and its drug-resistant sublines (resistant to vinblastine and taxol, CCRF-CEM/VBL and CCRF-CEM/taxol, respectively) is also shown in Table 5. […] Thus, the compounds disclosed herein are effective against multiple drug resistant tumors.

CCRF-CEM/VBL = assay: In vitro cytotoxicity, XTT assay, vinblastine resistant subline; format: cell-based, human; conditions: for IC50: XTT assay, 72-hr incubation; for fold of cross-resistant, CCRF-CEM/VBL vs IC50 of the parent cell line: numbers in brackets
From the text: as §1, §2, §3

[2] = test system: CCRF-CEM human lymphoblastic leukemia cells; assay: In vitro cytotoxicity, XTT assay, 72-hr incubation; format: cell-based
From the text: as §1, §2, §3

[3] = test system: Human colon carcinoma HCT-116 cells; assay: In vitro cytotoxicity, sulforhodamine B (SRB) assay; format: cell-based
From the text: as §1, §2, §3

[4] = test system: Human mammary carcinoma (MX-1) tumor cells; assay: as above; format: cell-based; conditions: 72-hr incubation
From the text: as §1, §2, §3

[5] = Homo sapiens, HCT-116, 72-hr incubation
[6] = 15 mg/kg, every other two days (Q2D), two times

| Structure (SMILES) | antitumor therapeutic effect (tumor size) ([1]; 5 mg/kg, daily (QD) 3 times) | toxicity ([1]; 5 mg/kg, daily (QD) 3 times) | IC50 (CCRF-CEM/Taxol; Homo sapiens, CCRF-CEM) [nM] | fold of cross-resistant, CCRF-CEM/Taxol vs IC50 of the parent cell line (CCRF-CEM/Taxol) | IC50 (CCRF-CEM/VBL; Homo sapiens, CCRF-CEM) [nM] | fold of cross-resistant, CCRF-CEM/VBL vs IC50 of the parent cell line (CCRF-CEM/VBL) | IC50 ([2]; Homo sapiens, CCRF-CEM) [nM] | IC50 [3, 5] [nM] | IC50 ([4]; Homo sapiens) [nM] | IC50 (CCRF-CEM/Taxol) [nM] | IC50 (CCRF-CEM/VBL) [nM] | IC50 [2] [nM] | IC50 ([3]; 72-hr incubation) [nM] | IC50 [4] [nM] | antitumor therapeutic effect (tumor size) [1, 6] | toxicity [1, 6] |
| --- | --- | --- | --- | --- | --- | --- | --- | --- | --- | --- | --- | --- | --- | --- | --- | --- |
| CNC(=O)OCc1c(COC(=O)NC)c(-c2ccc(OC)cc2)n2c1Cc1ccccc1-2 [DA-1012, Methylcarbamic acid 3-(4-methoxy-phenyl)-2-methylcarbamoyloxymethyl-8H-3a-azacyclopenta[a]inden-1-ylmethyl ester] | tumor total disappearance | low toxicity | 58 | [1.2x] | 70 | [1.4x] | 49 | 2740 | 1940 |  |  |  |  |  |  |  |
| CNC(=O)OCc1c(COC(=O)NC)c(-c2ccc(Cl)cc2)n2c1Cc1ccccc1C2 [DA-1117, methylcarbamic acid 3-(4-chlorphenyl)-2-methylcarbamoyloxymethyl-5,10-dihydropyrrolo[1,2-b]isoquinolin-1-ylmethyl ester] |  |  |  | [1.13x] |  | [1.09x] |  |  |  | 216 | 208 | 191 | 356 | 1170 |  |  |
| COc1ccccc1-c1c(CO)c(CO)c2n1-c1ccccc1C2 [DA-1123, (2-Hydroxymethyl-3-(2-methoxyphenyl)-8H-3a-aza-cyclopenta[a]inden-1-yl)methanol] |  |  | 2680 | [2.68x] | 1900 | [1.89x] | 1010 | 13400 | 8640 |  |  |  |  |  |  |  |
| CNC(=O)OCc1c(COC(=O)NC)c(-c2ccccc2OC)n2c1Cc1ccccc1-2 [DA-1124, Methylcarbamic acid 3-(2-methoxyphenyl)-2-methylcarbamoyloxymethyl-8H-3a-aza-cyclopenta[a]inden-1-ylmethyl ester] |  |  | 360 | [2.65x] | 243 | [1.79x] | 136 | 151 | 1330 |  |  |  |  |  | tumor total disappearance | low toxicity |
| CNC(=O)OCc1c(COC(=O)NC)c(-c2ccc(OC)c(OC)c2)n2c1Cc1ccccc1-2 [DA-1125, Methylcarbamic acid 3-(3,4-dimethoxyphenyl)-2-methylcarbamoyloxymethyl-8H-3a-aza-cyclopenta[a]inden-1-ylmethyl ester] |  |  | 497 | [1.42x] | 374 | [1.07x] | 350 | 680 | 1840 |  |  |  |  |  |  |  |
| COc1cccc(OC)c1-c1c(CO)c(CO)c2n1-c1ccccc1C2 [DA-1126, (3-(2,6-Dimethoxyphenyl)-2-hydroxymethyl-8H-3a-aza-cyclopenta[a]inden-1-yl)methanol] |  |  | 741 | [0.09x] | 251 | [0.03x] | 8140 | 43700 | 25500 |  |  |  |  |  |  |  |
| CNC(=O)OCc1c(COC(=O)NC)c(-c2c(OC)cccc2OC)n2c1Cc1ccccc1-2 [DA-1127, Methylcarbamic acid 3-(2,6-dimethoxyphenyl)-2-methylcarbamoyloxymethyl-8H-3a-aza-cyclopenta[a]inden-1-ylmethyl ester] |  |  | 616 | [0.96x] | 697 | [1.08x] | 640 | 1110 | 5480 |  |  |  |  |  |  |  |
| COc1cc(-c2c(CO)c(CO)c3n2-c2ccccc2C3)cc(OC)c1OC [DA-1128, (2-Hydroxymethyl-3-(3,4,5-trimethoxyphenyl)-8H-3a-aza-cyclopenta[a]inden-1-yl)-methanol] |  |  | 1040 | [0.50x] | 1140 | [0.56x] | 2050 | 30600 | 17600 |  |  |  |  |  |  |  |
| CNC(=O)OCc1c(COC(=O)NC)c(-c2cc(OC)c(OC)c(OC)c2)n2c1Cc1ccccc1-2 [DA-1129, Methylcarbamic acid 3-(3,4,5-trimethoxyphenyl)-2-methylcarbamoyloxymethyl-8H-3a-aza-cyclopenta[a]inden-1-ylmethyl ester] |  |  | 14300 | [1.21x] | 8400 | [0.71x] | 11800 | 1830 | 7250 |  |  |  |  |  |  |  |
| COc1ccc(-c2c(CO)c(CO)c3n2-c2ccc(OC)cc2C3)cc1 [DA-1130, (2-hydroxymethyl-6-methoxy-3-(4′-methoxyphenyl)-8H-3a-aza-cyclopenta[a]inden-1-yl)methanol] |  |  |  | [1.10x] |  | [0.52x] |  |  |  | 130 | 61 | 118 | 610 | 1520 |  |  |
| CNC(=O)OCc1c(COC(=O)NC)c(-c2ccc(OC)cc2)n2c1Cc1cc(OC)ccc1-2 [DA-1131, methylcarbamic acid 6-methoxy-3-(4-methoxyphenyl)-2-methylcarbamoyl-oxymethyl-8H-3a-aza-cyclopenta[a]inden-1-ylmethyl ester] |  |  | 96.2 | [1.55x] | 63.9 | [1.03x] | 62 | 455 | 878 |  |  |  |  |  |  |  |
| CC(=O)O[C@H]1C(=O)[C@@]2(C)[C@H]([C@H](OC(=O)c3ccccc3)[C@]3(O)C[C@H](OC(=O)[C@H](O)[C@@H](NC(=O)c4ccccc4)c4ccccc4)C(C)=C1C3(C)C)[C@]1(OC(C)=O)CO[C@@H]1C[C@@H]2O [Taxol, reference compound] |  |  | 1270 |  | 429 | [330x] | 1.3 | 1.3 | 35 |  |  |  |  |  |  |  |
| CC[C@]1(O)C[C@@H]2CN(CCc3c([nH]c4ccccc34)[C@@](C(=O)OC)(c3cc4c(cc3OC)N(C)[C@H]3[C@@](O)(C(=O)OC)[C@H](OC(C)=O)[C@]5(CC)C=CCN6CC[C@]43[C@@H]65)C2)C1 [Vinblastine, reference compound] |  |  | 496 | [679.5x] | 78 |  | 0.73 | 1.8 | 2.9 |  |  |  |  |  |  |  |
